These results are taken from a melting point compilation (Tetko et al.).

Usually melting point stands for the temperature, or range, at which the solid turns liquid. Take `COc1cc(C=O)ccc1SC`: the melting point fell in the range of 45 to 47 °C. The compound `NC(=O)c1cnc(N)c(Cl)c1` displayed a melting point of 217 to 219 °C. Compound `COC(=O)c1cc(Cl)ccc1S(=O)(=O)Cl` returned a melting point of 74 to 76 °C. To `CC1CCC(NC2CCC(O)CC2)CC1` (configuration not stated) belongs 143 to 145 °C; to `NC(=NO)C1CCCCC1`, 89 to 91 °C. For `Nc1nc(-c2ccncc2)cs1` the value was 172 to 174 °C; for `CS(=O)(=O)Cc1nc(=N)o[nH]1`, 158 to 160 °C; for `OC(c1ccc(F)cc1)C1CCNCC1` (configuration not stated), 146 to 148 °C. Consider `Cc1cc(C(=O)CCC(=O)O)c(C)s1`, for which the melting point lay within 105 to 108 °C.

`O=C(Nc1ccc(C(=O)O)c(O)c1)c1cccc(Br)c1` came in with a melting point of 239 to 241 °C.

Regarding `CCc1[nH]nc(N)c1-c1ccc2c(c1)OCO2`, the melting point lay in the range of 97 to 99 °C. `O=[N+]([O-])c1ccc(Cl)c(S(=O)(=O)N2CCCC2)c1`: the melting point lay in the range of 114 to 116 °C. `Fc1ccc(-c2cc3ncnc(Cl)c3s2)cc1` showed a melting point of 202 to 206 °C. `COc1cc(CCl)ccc1SC` had a melting point of 78 to 80 °C.

For the compound `O=C(c1ccccc1)c1ncccn1`, the melting point is 79 to 81 °C. For `CC(C)C(Br)C(=O)NC1CCS(=O)(=O)C1` (configuration not stated) the value was 139 to 141 °C. Turning to `Cc1cc(C(=O)O)c(C)n1Cc1ccccn1`, the melting point lay within 151 to 153 °C.

As to `Cc1cnc2c(c1)NCCN2`, the melting point fell in the range of 127 to 129 °C. Compound `COc1ccc(S(=O)(=O)Cl)cc1C1(C)NC(=O)NC1=O` (configuration not stated) displayed a melting point of 214 to 216 °C.

For `O=C(Nc1sccc1C(=O)O)c1ccc2c(c1)CCC2`, the melting point was 214 to 216 °C. Consider `O=C(O)C12CC3CC(C1)CC(c1ccccc1)(C3)C2`, for which the melting point is 161 to 163 °C. On to `COc1ccc(-c2cc3ncnc(Cl)c3s2)cc1`, for which the melting point fell in the range of 179 to 181 °C. For `COc1ccc(-c2csc(CC#N)n2)cc1`, the melting point is 70 to 72 °C. Compound `Cc1cc(Br)cc2cc(C#N)oc12` gave a melting point of 139 to 141 °C. As to `COc1cc(OCC(=O)O)ccc1[N+](=O)[O-]`, the melting point lay within 195 to 197 °C.

The compound `O=c1[nH]c(S)nn1-c1ccccc1` yielded a melting point of 187 to 189 °C. For `Cc1ccccc1C(C)(C)C(=O)O` the value was 93 to 95 °C; for `O=Cc1c(O)cccc1Cl`, 52 to 54 °C; for `CCCS(=O)(=O)N1CCC(C(=O)O)CC1`, 146 to 148 °C. In the case of `CC(=O)N1CCc2ccccc2C1CC(=O)O` (configuration not stated), the melting point is 163 to 167 °C.

On to `N#Cc1cccc(/C=C/C(=O)O)c1`, for which the melting point fell in the range of 246 to 248 °C. As to `CC(C)Cc1nc(C#N)c(NN)o1`, the melting point is 102 to 104 °C. Compound `Nc1nnc(CC2CC2)o1` had a melting point of 141 to 143 °C. For `Clc1ccnc2ccc(Br)cc12` the value was 111 to 113 °C; for `Cc1ccc(S(=O)(=O)Cl)c(F)c1`, 39 to 41 °C. `Cc1ccc(-c2nc(N)sc2CC(=O)O)cc1C` displayed a melting point of 265 to 267 °C.

Regarding `O=c1[nH]c(CCl)nc2ccsc12`, the melting point was 190 to 193 °C. `OC1CCc2c(F)cccc21` (configuration not stated) registered a melting point of 59 to 61 °C. The compound `COc1ccc2cc(-c3cc(C(=O)O)c4ccccc4n3)ccc2c1` showed a melting point of 258 to 260 °C. Compound `Cc1ccccc1-c1cnc(N)s1` registered a melting point of 119 to 121 °C. `O=C(O)c1ccnc(N2CCCC2)n1` showed a melting point of 205 to 207 °C. Take `Nc1cccc(N2C(=O)c3ccccc3C2=O)c1`: the melting point fell in the range of 189 to 191 °C. For the compound `O=CN1CCc2cc(C(=O)CCl)ccc21`, the melting point lay within 146 to 148 °C. For `N#Cc1cccc(OC2CCNCC2)c1` the value was 52 to 54 °C; for `COc1ccc(CC2CCNCC2)cc1`, 55 to 57 °C. The compound `O=Cc1cccc(NC(=O)c2ccc(Cl)cc2)c1` yielded a melting point of 129 to 131 °C. `Nc1nc(-c2ccccn2)cs1` displayed a melting point of 135 to 137 °C. In turn, `Cc1cc(NS(=O)(=O)c2cccc(C#N)c2)no1` showed a melting point of 159 to 161 °C. With `O=C(O)c1cc(CCc2ccccc2)ccc1O`, the melting point is 156 to 158 °C.

The compound `Cn1c(C(=O)O)ccc1-c1ccccc1` registered a melting point of 143 to 145 °C. The compound `Cc1[nH]c2ccc(Cl)cc2c1C=O` registered a melting point of 248 to 250 °C. Regarding `O=C(O)c1occc1CN1CCOCC1`, the melting point lay within 184 to 186 °C. For `O=C(O)c1csc(-c2ccccc2)c1` the value was 184 to 186 °C; for `NC(=O)c1ccsc1NC(=O)CCl`, 148 to 150 °C; for `C=CCSc1nnc(N)s1`, 119 to 121 °C.

As for `CSc1nn(-c2ccccc2)c(N)c1C#N`, the melting point lay in the range of 135 to 137 °C. To `Sc1nnc(-c2ccc[nH]2)o1` belongs 205 to 207 °C; to `O=C(O)C(=O)c1ccc(Br)cc1`, 105 to 107 °C; to `CSC(=S)NN=C(C)c1ccccc1`, 149 to 151 °C. `Fc1ccc(NC2CCN(c3ccncc3)CC2)cc1` showed a melting point of 151 to 153 °C.

Consider `Cc1ccc(C(=O)NN)c(O)c1`, for which the melting point was in the range of 173 to 175 °C. `Cn1ncc2c1CCCC2O` (configuration not stated) had a melting point of 104 to 106 °C.

Compound `OC1C=C(c2ccc(Cl)cc2)CC1` (configuration not stated) registered a melting point of 89 to 91 °C.

In turn, `Cn1ccnc1COc1ccc(C(=O)O)cc1` came in with a melting point of 235 to 237 °C.

In turn, `CC(=O)c1cn(-c2ccccc2)nn1` showed a melting point of 102 to 104 °C. For `CCOC(OCC)c1nnc[nH]1` the value was 59 to 61 °C. `O=C(O)c1cc(/C=C/c2ccc(Br)cc2)nc2ccc(Br)cc12` displayed a melting point of 309 to 311 °C. Compound `CC(=O)Nc1ccc(N2C(=O)c3ccc(C(=O)O)cc3C2=O)cc1` displayed a melting point of 379 to 381 °C. Consider `COc1cc(CN2CCNCC2)cc(OC)c1OC`, for which the melting point lay within 102 to 104 °C. For `Sc1nnnn1C1CCOCC1` the value was 154 to 156 °C; for `CC1(c2ccccc2)NC(=O)N(NC(=O)CCl)C1=O` (configuration not stated), 150 to 152 °C. In the case of `CC(C)Cc1ccc(-c2csc(N)n2)cc1`, the melting point was 108 to 110 °C. Take `NC(=O)NCc1ccccc1F`: the melting point was 147 to 149 °C. `O=C1C=CC(=O)N1CCc1ccc([N+](=O)[O-])cc1` gave a melting point of 61 to 63 °C. `Sc1nccn1Cc1ccccn1`: the melting point lay in the range of 173 to 175 °C.

In the case of `COc1ccc(-c2nc(C)c(C(C)=O)s2)cc1`, the melting point fell in the range of 92 to 94 °C. For `O=C(CCl)NCc1ccccc1S(=O)(=O)N1CCCCC1` the value was 89 to 91 °C; for `Cc1n[nH]c(C)c1[N+](=O)[O-]`, 121 to 123 °C. Turning to `Cc1nc(Cc2ccccc2)sc1C(=O)O`, the melting point lay in the range of 236 to 238 °C. For `O=C(O)CC(n1cnc2sccc2c1=O)C(F)(F)F` (configuration not stated) the value was 188 to 190 °C. In turn, `Fc1cc2cccnc2cc1F` registered a melting point of 109 to 111 °C.

`N#Cc1cnc(Oc2ccccc2)cn1` came in with a melting point of 99 to 101 °C.

Consider `Cc1c(-c2ccccc2)nc2ccccc2c1C(=O)O`, for which the melting point was 235 to 237 °C. For the compound `O=C(CCl)NC(c1ccc(F)cc1)c1cccs1` (configuration not stated), the melting point fell in the range of 124 to 126 °C. `C=CC(=O)NC(N)=O` showed a melting point of 169 to 171 °C. Take `COC(=O)N1CCC(N)CC1`: the melting point was in the range of 40 to 42 °C.

In turn, `CC(=O)c1cccc(OCC(=O)O)c1` came in with a melting point of 119 to 121 °C. `CNC(=O)c1cccc(N)c1C`: the melting point was 178 to 180 °C. The compound `O=C(O)CCCOc1ccccc1F` came in with a melting point of 76 to 78 °C.

`OC(Cc1ccc(Cl)cc1)C(F)(F)F` (configuration not stated) displayed a melting point of 66 to 68 °C.

Take `NC(=O)CCNc1ccccc1[N+](=O)[O-]`: the melting point is 136 to 138 °C. The compound `CC(=O)NC1(C(=O)O)CCCCCC1` showed a melting point of 196 to 198 °C. `CNC(=O)c1cccnc1Cl`: the melting point is 106 to 108 °C. For `CC(=O)Nc1cc(C)c(S(=O)(=O)Cl)cc1Br` the value was 109 to 111 °C; for `Nc1sc2c(c1C(=O)N1CCOCC1)CCCC2`, 90 to 92 °C.

Compound `CNc1cc(NC)c([N+](=O)[O-])cc1F` came in with a melting point of 185 to 187 °C. `CN(CC(=O)Nc1c(Cl)cccc1Cl)C(=O)CCl` came in with a melting point of 188 to 190 °C. In turn, `S=c1[nH][nH]c(=Nc2cccc(Br)c2)s1` had a melting point of 225 to 227 °C. Compound `Cc1ccc(S(=O)(=O)OCC2CCN(C(=O)OC(C)(C)C)CC2)cc1` displayed a melting point of 72 to 74 °C.

`CCC(C#N)NC(=O)OC(C)(C)C` (configuration not stated) had a melting point of 78 to 80 °C. Take `CN1CCN(c2ccc(C=O)cc2F)CC1`: the melting point lay in the range of 65 to 67 °C.

`O=C(O)CSCC(=O)N1CCCCC1` had a melting point of 91 to 93 °C. On to `CC(C)(C)OC(=O)NC(C)(C)C(N)=S`, for which the melting point lay within 169 to 171 °C. For `C[C@H](NC(=O)c1cccc([N+](=O)[O-])c1)C(=O)O` the value was 159 to 161 °C. With `CC(O)C1CCNCC1` (configuration not stated), the melting point lay within 68 to 70 °C. For `Nc1ccc(-n2cncn2)nc1` the value was 188 to 190 °C; for `Cc1cc(Cl)c(N)cc1Cl`, 86 to 88 °C; for `CC(C)(C)OC(=O)N1CCN(C(=O)C2CCCNC2)CC1` (configuration not stated), 119 to 121 °C. Regarding `CN1C(=O)c2ccc(N)cc2C1=O`, the melting point lay in the range of 247 to 249 °C. Regarding `Nc1cnn(-c2ccccc2)c1`, the melting point was 95 to 97 °C. Regarding `Cc1ccc(-c2cc(C(=O)NN)c3ccccc3n2)cc1`, the melting point lay within 85 to 90 °C. Turning to `CN(c1ccc(O)cc1)S(=O)(=O)c1ccc(F)cc1`, the melting point was 152 to 154 °C. For the compound `NNc1c(Cl)cc(C(=O)O)cc1Cl`, the melting point is 207 to 209 °C. `Cn1cn[nH]c1=O` came in with a melting point of 134 to 136 °C. `COc1cc(-c2nc(CCl)cs2)ccc1O`: the melting point was 86 to 88 °C. For `O=C(O)c1ccccc1NS(=O)(=O)c1cccc(C(F)(F)F)c1` the value was 157 to 159 °C; for `O=C(O)CNC(=O)c1ccc(Cl)c(Cl)c1`, 136 to 138 °C. To `O=C(O)C1(c2cccc(F)c2)CCCCC1` belongs 135 to 137 °C; to `O=Cc1ccc(Br)cc1[N+](=O)[O-]`, 95 to 100 °C.

`COc1ccc(CC#N)c(Cl)c1OC` gave a melting point of 55 to 57 °C. The compound `O=C1NC(=O)C(F)(F)c2ccccc21` registered a melting point of 109 to 111 °C. Regarding `CC1(c2ccc(Br)cc2)NC(=O)NC1=O` (configuration not stated), the melting point was in the range of 262 to 264 °C.
